The source made the active and inactive calls.
Experiments:
[1] = Trypanosoma cruzi growth suppression in host cells – NIH3T3 host cells, beta-gal luminescence, confirmation (AID 2044); format: functional, cell-based;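 also: intracellular parasites grown in NIH/3T3 mouse fibroblasts as host cells; luminescent beta-galactosidase reporter signal from transgenic T. cruzi replicating inside host cells; inhibitors lower the luminescence signal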
[2] = NIH3T3 cell viability loss – ATP luminescence, mouse fibroblasts, counter-screen, dose response (AID 2010); format: functional, cell-based;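 also: cells exposed to compound for about 90 hours before reading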
[3] = Luminescence Cell-Based Dose Retest to Confirm Inhibitors of Cancer Stem Cells. [Related pubchem assays (depositor defined):AID2717, AID2721]; format: functional; settings: Homo sapiens
[4] = molecular target: Cytochrome P450 3A4 (Homo sapiens, UniProt P08684);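 also: CYP3A4 tested as one member of a cytochrome P450 panel screen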
Cytochrome P450 3A4, sequence (P08684 whole entry): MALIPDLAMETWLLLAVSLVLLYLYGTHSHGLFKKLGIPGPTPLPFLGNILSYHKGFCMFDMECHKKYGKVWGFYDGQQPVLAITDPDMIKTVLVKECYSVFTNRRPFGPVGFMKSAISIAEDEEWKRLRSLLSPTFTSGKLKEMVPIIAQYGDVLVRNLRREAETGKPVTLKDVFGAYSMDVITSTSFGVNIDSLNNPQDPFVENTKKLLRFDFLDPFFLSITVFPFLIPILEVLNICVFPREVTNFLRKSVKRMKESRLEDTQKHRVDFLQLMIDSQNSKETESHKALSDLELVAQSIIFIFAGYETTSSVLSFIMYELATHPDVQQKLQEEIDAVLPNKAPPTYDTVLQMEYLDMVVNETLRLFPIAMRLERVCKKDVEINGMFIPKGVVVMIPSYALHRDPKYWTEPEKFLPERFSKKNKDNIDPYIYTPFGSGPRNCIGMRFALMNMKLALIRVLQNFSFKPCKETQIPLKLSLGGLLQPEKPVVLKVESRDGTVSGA

In the case of `O=C(NCCCN1CCCC1=O)c1ccc([N+](=O)[O-])s1`, the EC50 [1] is reported as 0.534 µM (active) and the EC50 [2] is reported as > 30 µM (not active).

In the case of `CN(CC(=O)Nc1ccc(S(=O)(=O)N2CCCC2)cc1)Cc1ccc(Cl)cc1`, the EC50 [1] is reported as 1.58 µM (active) and the EC50 [2] is reported as > 60 µM (not active).

For `Cc1ccc(OCC(O)Cn2c3ccccc3c3ccccc32)cc1` (configuration not stated), the AC50 [3] was 4.84 µM (active).

In the case of `Nc1ccc(N2CCN(Cc3ccccc3Cl)CC2)c(Cl)c1`, the AC50 [3] is reported as 2.45 µM (active).

For `CN(C)CCCn1c2c(c(SCC(=O)Nc3cccc4ccccc34)nc1=O)CCC2`, the EC50 [1] was 2.04 µM (active) and the EC50 [2] was > 60 µM (not active).

In the case of `COc1cc(Br)c(/C=C/c2ccc3cccc(O)c3n2)cc1OC`, the EC50 [1] is reported as 0.831 µM (active) and the EC50 [2] is reported as > 60 µM (not active).

With `O=C(NC(=S)NCc1cccnc1)c1cccc2ccccc12` the EC50 [1] was 0.505 µM (active) and the EC50 [2] was > 60 µM (not active).

With `COc1cccc(NC(=O)Nc2ccc(C)c(Cl)c2)c1` the EC50 [1] was 2.41 µM (active) and the EC50 [2] was > 30 µM (not active).

For `C/C(Cn1cnc([N+](=O)[O-])n1)=N/NC(=O)COc1ccccc1Cl`, the EC50 [1] was 0.154 µM (active) and the EC50 [2] was > 60 µM (not active).

With `COc1cccc(C(=O)N(C)c2nnc(-c3ccncc3)s2)c1` the AC50 [4] was 6.31 µM (inconclusive).

In the case of `Cn1nnnc1SCCNCc1cccc2ccccc12`, the EC50 [1] is reported as > 60 µM (not active) and the EC50 [2] is reported as > 60 µM (not active).

In the case of `Clc1ccc(Cl)c(OCCCCN2CCNCC2)c1`, the AC50 [3] is reported as 2.41 µM (active), the EC50 [1] is reported as 3.42 µM (active) and the EC50 [2] is reported as 9.24 µM (active).

In the case of `C=C[C@]1(C)C[C@H](OC(=O)CO)[C@]2(C)C3C(=O)CC[C@]3(CC[C@H]2C)[C@H](C)[C@H]1O` (some centres not stated), the AC50 [4] is reported as 3.16 µM (inconclusive).

With `c1ccc(Nc2cccc3c(Nc4ccccc4)cccc23)cc1` the EC50 [1] was 1.14 µM (active) and the EC50 [2] was > 60 µM (not active).

For `NC(=O)CC(NC(=O)c1ccc(Br)cc1)c1ccc(N2CCCCCCC2)c([N+](=O)[O-])c1` (configuration not stated), the AC50 [3] was 8.2 µM (active).

In the case of `O=c1c2ccccc2[nH]c(=S)n1CCCN1CCC(Cc2ccccc2)CC1`, the EC50 [1] is reported as 0.161 µM (active) and the EC50 [2] is reported as > 60 µM (not active).

For `CC(=O)c1ccc(NC(=O)C(Cc2ccccc2)NC(=O)c2ccco2)cc1` (configuration not stated), the AC50 [4] was 28.2 µM (inconclusive).

With `CCC(=O)Nc1nc(C)c(-c2csc(Nc3cccc(O)c3)n2)s1` the AC50 [3] was 0.188 µM (active).

In the case of `O=C(COc1ccc(Br)cc1Cl)NC1CCN(Cc2ccccc2)CC1`, the EC50 [1] is reported as 0.165 µM (active) and the EC50 [2] is reported as > 60 µM (not active).

In the case of `O=C(Cn1cnc([N+](=O)[O-])n1)N/N=C/c1ccc2ccccc2c1`, the EC50 [1] is reported as 0.333 µM (active) and the EC50 [2] is reported as > 60 µM (not active).

In the case of `COCCCn1c(=N)c(C(N)=S)cc2c(=O)n3cccc(C)c3nc21`, the EC50 [1] is reported as 1.34 µM (active) and the EC50 [2] is reported as > 60 µM (not active).

For `COc1ccc(CN2CCN(C(=O)C3CCC(CNS(=O)(=O)c4ccc(C)cc4)CC3)CC2)c(OC)c1OC` (configuration not stated), the EC50 [1] was 0.404 µM (active) and the EC50 [2] was > 60 µM (not active).

In the case of `O=C(OCc1nc2ccccc2s1)c1ccc(Br)s1`, the AC50 [4] is reported as 25.1 µM (inconclusive).

For `CCNS(=O)(=O)c1ccc(NC(=O)c2cc(C(F)(F)F)nn2C)cc1`, the AC50 [4] was 6.31 µM (inconclusive).

With `CCCCCc1nc2c(C#N)c(-c3ccc(Cl)cc3)ccn2n1` the AC50 [4] was 25.1 µM (inconclusive).

For `O=C(CN1CCN(c2ccc(O)cc2)CC1)Nc1ccc(SC(F)F)cc1`, the AC50 [3] was 6.49 µM (active).

With `O=C(CCCCN1CCCCC1)c1ccc2c(c1)Cc1ccccc1-2` the EC50 [1] was 1.9 µM (active) and the EC50 [2] was 13.6 µM (active).

In the case of `CCC(CO)Oc1cc(NCc2ccc(Cl)cc2Cl)c2ncn(C(C)C)c2c1` (configuration not stated), the AC50 [3] is reported as 8.14 µM (active).

With `O=C(Nc1ncc(S(=O)(=O)c2ccc([N+](=O)[O-])cc2)s1)c1ccc2ccccc2c1` the AC50 [3] was 2.11 µM (active), the EC50 [1] was 0.128 µM (active) and the EC50 [2] was > 60 µM (not active).

For `Cc1ccc(/C=N/NC(=O)CNC(=O)COc2ccccc2)o1`, the AC50 [3] was > 195 µM (inactive).

For `CCCCCCOc1ccc(OC(=O)c2cccnc2)cc1`, the AC50 [3] was 3.33 µM (active).

In the case of `Cc1[nH]n(C(C)(C)C)c(=O)c1Sc1ccc(Cl)cc1`, the EC50 [1] is reported as 16.3 µM (active) and the EC50 [2] is reported as > 60 µM (not active).
